Assay [1] deals with T1, Dual specificity mitogen-activated protein kinase kinase 5 (Homo sapiens) (UniProt Q13163).
T1 sequence (whole entry): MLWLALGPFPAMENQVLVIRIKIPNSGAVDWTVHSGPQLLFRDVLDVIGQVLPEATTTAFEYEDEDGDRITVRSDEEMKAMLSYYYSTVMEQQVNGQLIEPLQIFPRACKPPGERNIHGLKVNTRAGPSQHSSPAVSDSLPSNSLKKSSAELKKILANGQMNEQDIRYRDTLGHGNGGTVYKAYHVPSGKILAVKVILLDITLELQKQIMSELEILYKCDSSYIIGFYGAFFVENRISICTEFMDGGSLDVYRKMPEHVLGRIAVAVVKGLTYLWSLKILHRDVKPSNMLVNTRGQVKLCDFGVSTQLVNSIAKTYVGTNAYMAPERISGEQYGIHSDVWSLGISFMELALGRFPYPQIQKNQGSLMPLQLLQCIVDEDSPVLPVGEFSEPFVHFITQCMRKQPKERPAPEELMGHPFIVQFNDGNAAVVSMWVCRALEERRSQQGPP
The assay can be described thus: Selectivity interaction (KinomeScan (DiscoverX)) EUB0000695a MAP2K5. The conditions noted are these: at 100 nM.

Assay [2] addresses Serine/threonine-protein kinase PLK1 (Homo sapiens, UniProt P53350). The conditions noted are these: at 10 µM.
Assay [3] concerns the target Ribosomal protein S6 kinase alpha-3 (Homo sapiens, UniProt P51812). The assay is described as follows: Selectivity interaction (ActivX KiNativ screen (kinase selectivity in THP-1 cell lysates)) EUB0000639a RPS6KA3. The format is subcellular. The note with it: lysate, at 0.2 µM.
The target in assay [4] is T2, Scaffold protein ILK (Homo sapiens) (UniProt Q13418).
T2 sequence (whole entry): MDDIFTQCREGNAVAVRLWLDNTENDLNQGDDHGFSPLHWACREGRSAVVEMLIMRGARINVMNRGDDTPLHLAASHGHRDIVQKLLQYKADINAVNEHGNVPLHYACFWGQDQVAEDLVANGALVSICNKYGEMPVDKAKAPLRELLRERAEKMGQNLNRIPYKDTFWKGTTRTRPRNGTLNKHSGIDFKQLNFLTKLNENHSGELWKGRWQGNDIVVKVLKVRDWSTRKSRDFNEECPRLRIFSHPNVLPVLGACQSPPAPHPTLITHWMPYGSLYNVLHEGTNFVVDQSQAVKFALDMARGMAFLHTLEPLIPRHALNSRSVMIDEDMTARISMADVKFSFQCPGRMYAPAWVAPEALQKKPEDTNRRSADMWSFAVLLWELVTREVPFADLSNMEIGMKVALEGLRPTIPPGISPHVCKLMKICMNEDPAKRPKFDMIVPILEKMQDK
The assay can be described thus: Selectivity interaction (ActivX KiNativ screen (kinase selectivity in THP-1 cell lysates)) EUB0000639a ILK. It counts as subcellular. The conditions noted are these: lysate, at 0.01 µM.

Assay [5] deals with Tyrosine-protein kinase BTK (Homo sapiens, UniProt Q06187). The conditions noted are these: at 1 µM.
Assay [6] deals with Leukocyte tyrosine kinase receptor (Homo sapiens, UniProt P29376). The assay is described as follows: Selectivity interaction (ProQinase) EUB0000171b LTK.
Assay [7] has as its target T3, Lymphokine-activated killer T-cell-originated protein kinase (Homo sapiens) (UniProt Q96KB5).
T3 sequence (whole entry): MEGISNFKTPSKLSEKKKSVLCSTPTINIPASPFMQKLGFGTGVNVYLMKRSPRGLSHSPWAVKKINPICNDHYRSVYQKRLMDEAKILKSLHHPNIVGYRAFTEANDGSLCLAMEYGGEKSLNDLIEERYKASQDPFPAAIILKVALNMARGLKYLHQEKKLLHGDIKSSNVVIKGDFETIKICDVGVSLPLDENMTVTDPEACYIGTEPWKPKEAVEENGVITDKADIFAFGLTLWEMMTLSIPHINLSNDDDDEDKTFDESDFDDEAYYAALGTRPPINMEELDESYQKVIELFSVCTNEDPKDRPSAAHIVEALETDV
The assay can be described thus: Selectivity interaction (ProQinase) EUB0000171b PBK.

In assay [8] the target is Glycogen synthase kinase-3 beta (Homo sapiens, UniProt P49841). The assay can be described thus: Selectivity interaction (KinomeScan (DiscoverX)) EUB0001079a GSK3B. The conditions noted are these: at 1 µM.
Assay [9] has as its target Death-associated protein kinase 2 (Homo sapiens) (UniProt Q9UIK4). The assay is described as follows: Selectivity interaction (KinomeScan (DiscoverX)) EUB0001079a DAPK2. The conditions noted are these: at 1 µM.
For assay [10], the system named is Receptor-type tyrosine-protein kinase FLT3 (Homo sapiens), P36888 [UNDEFINED MUTATION]. The assay can be described thus: Selectivity interaction (KinomeScan (DiscoverX)) EUB0000229b FLT3. The conditions noted are these: at 1 µM.
The target of assay [11] is Mitogen-activated protein kinase kinase kinase kinase 4 (Homo sapiens, UniProt O95819). The assay is described as follows: Selectivity interaction (Kinase panel (KiNativ target engagement assay in Jurkat cells)) EUB0001635a MAP4K4. It counts as cell-based. The conditions noted are these: Selectivity number of off-targets 0.0, Selectivity number of targets 233.0, Source Knowledge https://www.sciencedirect.com/science/article/pii/S2451945619300674?via%3Dihub, at 1 µM.
Chain of Mitogen-activated protein kinase kinase kinase kinase 4 (O95819 2-1239 limits assumed): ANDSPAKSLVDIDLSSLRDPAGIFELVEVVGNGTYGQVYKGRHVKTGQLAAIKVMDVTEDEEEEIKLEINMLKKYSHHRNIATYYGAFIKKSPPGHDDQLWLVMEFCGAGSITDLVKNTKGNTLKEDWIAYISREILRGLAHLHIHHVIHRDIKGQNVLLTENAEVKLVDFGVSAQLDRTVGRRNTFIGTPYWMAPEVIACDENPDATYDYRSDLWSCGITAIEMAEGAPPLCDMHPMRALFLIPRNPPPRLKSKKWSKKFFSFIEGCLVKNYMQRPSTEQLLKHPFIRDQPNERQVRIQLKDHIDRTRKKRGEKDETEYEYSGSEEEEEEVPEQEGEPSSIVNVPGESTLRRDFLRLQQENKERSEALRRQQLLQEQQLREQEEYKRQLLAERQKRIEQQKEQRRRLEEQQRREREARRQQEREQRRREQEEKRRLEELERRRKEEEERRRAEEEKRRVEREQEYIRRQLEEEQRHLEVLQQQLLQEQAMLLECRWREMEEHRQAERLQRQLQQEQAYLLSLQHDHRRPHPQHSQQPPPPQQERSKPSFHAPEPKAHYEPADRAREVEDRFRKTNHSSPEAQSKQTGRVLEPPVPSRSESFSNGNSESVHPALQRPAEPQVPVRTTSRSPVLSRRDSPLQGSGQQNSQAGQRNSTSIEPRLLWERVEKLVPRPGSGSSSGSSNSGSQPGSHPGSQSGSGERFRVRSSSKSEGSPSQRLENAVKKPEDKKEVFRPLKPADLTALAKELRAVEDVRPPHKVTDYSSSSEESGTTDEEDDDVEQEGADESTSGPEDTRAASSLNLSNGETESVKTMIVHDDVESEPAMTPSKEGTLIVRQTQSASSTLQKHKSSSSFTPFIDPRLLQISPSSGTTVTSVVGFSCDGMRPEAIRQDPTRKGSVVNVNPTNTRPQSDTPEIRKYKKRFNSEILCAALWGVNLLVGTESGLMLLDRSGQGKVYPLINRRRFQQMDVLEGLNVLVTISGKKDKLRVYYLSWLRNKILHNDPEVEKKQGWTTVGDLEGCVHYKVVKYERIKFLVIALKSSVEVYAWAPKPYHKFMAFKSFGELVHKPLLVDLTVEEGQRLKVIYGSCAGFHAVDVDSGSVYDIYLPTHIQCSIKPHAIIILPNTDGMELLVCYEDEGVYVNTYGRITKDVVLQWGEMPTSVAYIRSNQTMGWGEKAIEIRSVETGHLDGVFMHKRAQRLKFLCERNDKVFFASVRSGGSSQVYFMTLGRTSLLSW

Chain of Leukocyte tyrosine kinase receptor (P29376 whole entry): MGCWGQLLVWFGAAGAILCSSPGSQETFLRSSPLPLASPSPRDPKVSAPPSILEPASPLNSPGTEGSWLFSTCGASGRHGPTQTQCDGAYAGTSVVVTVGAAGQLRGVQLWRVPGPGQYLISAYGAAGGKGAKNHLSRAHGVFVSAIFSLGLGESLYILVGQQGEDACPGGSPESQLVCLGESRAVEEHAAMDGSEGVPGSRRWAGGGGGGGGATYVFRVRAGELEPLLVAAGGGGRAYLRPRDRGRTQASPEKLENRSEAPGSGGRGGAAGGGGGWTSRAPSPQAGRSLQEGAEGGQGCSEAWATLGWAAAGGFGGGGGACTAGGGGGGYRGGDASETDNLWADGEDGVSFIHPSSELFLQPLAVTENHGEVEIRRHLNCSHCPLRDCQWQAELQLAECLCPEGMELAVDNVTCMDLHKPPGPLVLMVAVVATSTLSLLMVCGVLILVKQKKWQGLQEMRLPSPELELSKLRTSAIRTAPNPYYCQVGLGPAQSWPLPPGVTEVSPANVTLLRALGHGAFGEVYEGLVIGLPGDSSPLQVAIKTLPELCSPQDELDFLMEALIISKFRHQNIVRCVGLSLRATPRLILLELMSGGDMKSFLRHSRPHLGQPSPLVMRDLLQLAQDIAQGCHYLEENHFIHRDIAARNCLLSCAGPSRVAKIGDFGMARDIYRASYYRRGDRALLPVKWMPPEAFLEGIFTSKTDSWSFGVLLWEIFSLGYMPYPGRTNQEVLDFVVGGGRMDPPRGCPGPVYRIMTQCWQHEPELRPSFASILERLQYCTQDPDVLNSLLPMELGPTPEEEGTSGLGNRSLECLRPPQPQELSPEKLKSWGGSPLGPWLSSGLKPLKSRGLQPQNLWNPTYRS
Chain of Glycogen synthase kinase-3 beta (P49841 whole entry, looked up): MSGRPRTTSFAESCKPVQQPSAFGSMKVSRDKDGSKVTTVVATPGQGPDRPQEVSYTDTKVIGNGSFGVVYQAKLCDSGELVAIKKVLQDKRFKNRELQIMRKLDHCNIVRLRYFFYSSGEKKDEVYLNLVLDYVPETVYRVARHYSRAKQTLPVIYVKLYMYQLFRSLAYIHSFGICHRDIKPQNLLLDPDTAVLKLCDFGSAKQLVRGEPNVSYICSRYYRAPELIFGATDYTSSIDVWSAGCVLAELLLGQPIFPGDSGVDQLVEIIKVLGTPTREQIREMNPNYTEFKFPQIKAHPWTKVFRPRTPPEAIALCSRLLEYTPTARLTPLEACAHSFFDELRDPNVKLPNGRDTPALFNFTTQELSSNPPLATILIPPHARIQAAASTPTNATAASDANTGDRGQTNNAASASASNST
Chain of Death-associated protein kinase 2 (Homo sapiens) (Q9UIK4 whole entry, looked up): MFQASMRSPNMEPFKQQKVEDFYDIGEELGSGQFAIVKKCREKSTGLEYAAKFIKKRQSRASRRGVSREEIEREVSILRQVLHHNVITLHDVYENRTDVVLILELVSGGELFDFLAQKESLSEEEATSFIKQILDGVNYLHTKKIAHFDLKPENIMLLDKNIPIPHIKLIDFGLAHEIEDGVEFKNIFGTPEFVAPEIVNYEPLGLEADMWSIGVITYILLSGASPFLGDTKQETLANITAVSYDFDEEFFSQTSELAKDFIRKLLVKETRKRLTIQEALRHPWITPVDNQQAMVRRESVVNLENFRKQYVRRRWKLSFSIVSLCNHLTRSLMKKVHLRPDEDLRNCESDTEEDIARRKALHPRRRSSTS
Chain of Tyrosine-protein kinase BTK (Q06187 whole entry): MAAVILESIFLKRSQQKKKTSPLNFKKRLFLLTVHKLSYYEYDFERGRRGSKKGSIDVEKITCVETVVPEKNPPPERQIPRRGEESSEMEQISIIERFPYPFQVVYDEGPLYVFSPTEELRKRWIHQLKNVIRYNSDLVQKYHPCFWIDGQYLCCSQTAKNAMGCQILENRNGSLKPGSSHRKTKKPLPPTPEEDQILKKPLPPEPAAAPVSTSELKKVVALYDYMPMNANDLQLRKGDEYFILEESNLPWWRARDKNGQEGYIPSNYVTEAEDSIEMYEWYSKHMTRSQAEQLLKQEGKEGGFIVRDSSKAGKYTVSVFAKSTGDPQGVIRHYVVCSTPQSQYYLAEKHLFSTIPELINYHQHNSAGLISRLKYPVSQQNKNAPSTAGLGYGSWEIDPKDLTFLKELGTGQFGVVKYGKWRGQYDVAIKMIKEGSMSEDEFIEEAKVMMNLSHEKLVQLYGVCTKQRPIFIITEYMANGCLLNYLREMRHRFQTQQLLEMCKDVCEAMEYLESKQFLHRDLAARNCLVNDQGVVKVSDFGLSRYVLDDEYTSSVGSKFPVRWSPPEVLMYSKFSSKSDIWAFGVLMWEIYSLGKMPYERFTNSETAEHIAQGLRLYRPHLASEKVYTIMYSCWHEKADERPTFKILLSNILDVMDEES
Chain of Ribosomal protein S6 kinase alpha-3 (P51812 whole entry): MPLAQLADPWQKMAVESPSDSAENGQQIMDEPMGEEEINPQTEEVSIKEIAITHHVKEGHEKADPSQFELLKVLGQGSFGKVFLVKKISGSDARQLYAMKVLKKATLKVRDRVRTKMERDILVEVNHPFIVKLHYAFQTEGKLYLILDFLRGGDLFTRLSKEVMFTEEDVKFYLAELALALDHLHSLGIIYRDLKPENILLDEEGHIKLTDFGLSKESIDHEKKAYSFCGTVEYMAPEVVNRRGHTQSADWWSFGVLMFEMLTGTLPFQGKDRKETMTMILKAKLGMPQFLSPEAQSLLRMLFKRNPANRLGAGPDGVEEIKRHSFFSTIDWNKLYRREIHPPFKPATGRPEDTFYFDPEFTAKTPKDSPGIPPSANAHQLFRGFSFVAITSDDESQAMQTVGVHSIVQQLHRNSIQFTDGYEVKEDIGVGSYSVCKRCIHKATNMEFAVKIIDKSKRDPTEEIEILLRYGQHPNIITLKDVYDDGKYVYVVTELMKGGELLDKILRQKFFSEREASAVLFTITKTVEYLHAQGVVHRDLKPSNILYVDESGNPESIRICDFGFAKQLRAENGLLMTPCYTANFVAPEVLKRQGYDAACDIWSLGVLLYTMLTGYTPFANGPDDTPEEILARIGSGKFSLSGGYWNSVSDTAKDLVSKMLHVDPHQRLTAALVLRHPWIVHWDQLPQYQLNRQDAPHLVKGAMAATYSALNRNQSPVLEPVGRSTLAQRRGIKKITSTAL
Chain of Serine/threonine-protein kinase PLK1 (P53350 whole entry): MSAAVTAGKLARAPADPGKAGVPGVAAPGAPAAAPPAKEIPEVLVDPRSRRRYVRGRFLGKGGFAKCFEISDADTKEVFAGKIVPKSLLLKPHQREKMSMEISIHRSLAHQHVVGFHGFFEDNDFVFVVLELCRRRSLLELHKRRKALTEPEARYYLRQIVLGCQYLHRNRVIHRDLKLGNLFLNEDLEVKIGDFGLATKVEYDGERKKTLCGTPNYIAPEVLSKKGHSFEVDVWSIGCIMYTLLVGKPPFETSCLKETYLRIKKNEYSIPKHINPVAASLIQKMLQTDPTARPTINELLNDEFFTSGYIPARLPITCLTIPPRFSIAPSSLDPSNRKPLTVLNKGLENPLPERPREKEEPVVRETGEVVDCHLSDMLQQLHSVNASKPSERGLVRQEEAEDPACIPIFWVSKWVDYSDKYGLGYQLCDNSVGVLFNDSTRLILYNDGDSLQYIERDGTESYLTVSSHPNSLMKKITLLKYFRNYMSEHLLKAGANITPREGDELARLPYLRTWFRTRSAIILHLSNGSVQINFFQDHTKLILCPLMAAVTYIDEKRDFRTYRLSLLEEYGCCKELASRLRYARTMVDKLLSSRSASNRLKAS

For the molecule `Cc1cc(F)c(C(=O)Nc2cccc(-c3nncn3C(C)C)n2)cc1-n1cnc(C2CC2)c1`, the % of control in [1] is 94%.
With `Cc1cc([C@@H](C)Nc2ccccc2C(=O)O)c2nc(N3CCOCC3)cc(=O)n2c1` [AZD-6482], the % of control in assay [2] worked out at 100%.
For `CC[C@@H]1[C@H](F)C(=O)N[C@@H]1COc1nccc2cc(C(N)=O)c(OC)cc12` [ZIMLOVISERTIB], the % of inhibition in [3] was found to be 0%; in [4], 3.1%.
Turning to `C=CC(=O)Nc1cc(-n2c(=O)ccc3cnc4ccc(-c5ccc(NS(C)(=O)=O)cc5)cc4c32)ccc1C`, the % of control in assay [5] came out at 1%.
On to `C=CC(=O)Nc1cccc(C(=O)Nc2ccc(Nc3cc(-c4[nH]c(SC)nc4C)ccn3)cc2)c1`, for which the % of control in assay [6] (at 1 µM) was found to be 108%; in assay [6] (at 5 µM) it was 99%; in assay [7] (at 1 µM), 141%; in assay [7] (at 5 µM), 89%.
As for `Nc1cnc(N2CCc3cc(S(=O)(=O)Nc4c(F)cc(Cl)cc4F)cc(N4CCCC4=O)c32)nc1` [TP-020n], the % of control in [8] came out at 100%; in [9], 91%.
As to `COc1cc(N(C)c2ccnc3ccc(C(F)(F)F)cc23)cc(OC)c1OC`, the % binding in assay [10] was found to be 100%.
Turning to `C=CC(=O)Nc1ccc(C(=O)Nc2[nH]nc3c2CN(C(=O)N[C@H](CN(C)C)c2ccccc2)C3(C)C)cc1`, the % of engagement in assay [11] is -15.4%.
